Data: US8871756B2 (Hoffmann-La Roche Inc., priority 2011, dated 2014)

These compounds were tested on RSV Long strain (assay: Viral cytopathic effect (CPE) assay, anti-RSV activity). Details: human respiratory syncytial virus, 144 h, RSV Long strain (ATCC); cell viability after 6 days, Cell Counting kit-8.
Assay type: cell-based, Respiratory Syncytial Virus
Method in brief: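 EC50 was derived from CCK-8 viability at 450/630 nm measured 6 days post-infection. Infection used enough RSV Long strain for approximately 80–90% cytopathic effect, in the presence of half-log serially diluted compound. Cells were plated the day before at 6×10^3 per well in DMEM/10% FBS.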
Cc1ccc2nc(N3CCS(=O)(=O)c4ccccc4C3)cc(N3C[C@@H](O)[C@H](N4CCN(C)CC4)C3)c2c1 [Example 8-6, (3R,4R)-1-[2-(1,1-Dioxido-2,3-dihydro-1,4-benzothiazepin-4(5H)-yl)-6-methylquinolin-4-yl]-4-(4-methylpiperazin-1-yl)pyrrolidin-3-ol] gave an EC50 of 3.77 µM.
COc1ccc2c(c1)S(=O)(=O)CCN(c1cc(NCCO)c3ccccc3n1)C2 [Example 9-2, 2-{[2-(8-M ethoxy-1,1-dioxido-2,3-dihydro-1,4-benzothiazepin-4(5 H)-yl)quinolin-4-yl]amino}ethanol] gave an EC50 of 4.77 µM.
For Cc1ccc2nc(N3CCS(=O)(=O)c4ccccc4C3)cc(OCCN)c2c1 [Example 97, 2-{[2-(1,1-Dioxido-2,3-dihydro-1,4-benzothiazepin-4(5H)-yl)-6-methylquinolin-4-yl]oxy}ethanamine], the EC50 was 0.177 µM.
In the case of N[C@@H]1CN(c2cc(N3CC[S+]([O-])c4ccccc4C3)nc3ccc(Cl)cc23)C[C@H]1F (relative stereo) [Example 19-7, trans-1-[6-Chloro-2-(1-oxido-2,3-dihydro-1,4-benzothiazepin-4(5H)-yl)quinolin-4-yl]-4-fluoropyrrolidin-3-amine], the EC50 is reported as 6.86 µM.
Compound COc1ccc2c(c1)S(=O)(=O)CCN(c1cc(NCC3(N)COC3)c3ccccc3n1)C2 [Example 2-9, N-[(3-Aminooxetan-3-yl)methyl]-2-(8-methoxy-1,1-dioxido-2,3-dihydro-1,4-benzothiazepin-4(5H)-yl)quinolin-4-amine] has an EC50 of 0.007 µM.
Cc1ccc2nc(N3CCS(=O)(=O)c4ccccc4C3)cc(NCCC3(N)CC3)c2c1 [Example 20-3, [2-(1-Amino-cyclopropyl)-ethyl]-[2-(1,1-dioxido-2,3-dihydro-1,4-benzothiazepin-4(5H)-yl)-6-methylquinolin-4-yl]-amine] showed an EC50 of 0.093 µM.
NC1=N[C@@H](CCc2cc(N3CCCc4ccccc4C3)nc3ccccc23)CO1 [Example 131, (4S)-4-{2-[2-(1,3,4,5-Tetrahydro-2H-2-benzazepin-2-yl)quinolin-4-yl]ethyl}-4,5-dihydro-1,3-oxazol-2-amine] was tested, and the EC50 was 2.52 µM.
Cc1cccc2nc(N3CCS(=O)(=O)c4ccccc4C3)cc(NCCCN)c12 [Example 17-6, N-[2-(1,1-Dioxido-2,3-dihydro-1,4-benzothiazepin-4(5 H)-yl)-5-methylquinolin-4-yl]propane-1,3-diamine] gave an EC50 of 0.086 µM.
Compound Cc1ccc2nc(N3CCS(=O)(=O)c4ccccc4C3)nc(NCC3(CN)COC3)c2c1 [Example 56-1, N-{[3-(Aminomethyl)oxetan-3-yl]methyl}-2-(1,1-dioxido-2,3-dihydro-1,4-benzothiazepin-4(5H)-yl)-6-methylquinazolin-4-amine] has an EC50 of 0.002 µM.
In the case of NC1(CNc2nc(N3CC[S+]([O-])c4ccccc4C3)nc3ccc(Cl)cc23)COC1 (stereo not shown) [Example 57-5, N-[(3-Aminooxetan-3-yl)methyl]-6-chloro-2-(1-oxido-2,3-dihydro-1,4-benzothiazepin-4(5H)-yl)quinazolin-4-amine], the EC50 is reported as 0.027 µM.
Compound Cc1ccc2nc(N3CCS(=O)(=O)c4ccccc4C3)cc(NC(=O)c3ccccn3)c2c1 [Example 48, N-[2-(1,1-Dioxido-2,3-dihydro-1,4-benzothiazepin-4(5H)-yl)-6-methylquinolin-4-yl]pyridine-2-carboxamide] has an EC50 of 0.009 µM.
COCCNc1cc(N2CCS(=O)(=O)c3ccccc3C2)nc2ccc(C)cc12 [Example 9-26, 2-(1,1-Dioxido-2,3-dihydro-1,4-benzothiazepin-4(5H)-yl)-N-(2-methoxyethyl)-6-methylquinolin-4-amine] showed an EC50 of 7.2 µM.
Cc1ccc2nc(N3CCS(=O)(=O)c4cc(F)ccc4C3)cc(NCC3(CN)COC3)c2c1 [Example 3-1, N-{[3-(Aminomethyl)oxetan-3-yl]methyl}-2-(8-fluoro-1,1-dioxido-2,3-dihydro-1,4-benzothiazepin-4(5H)-yl)-6-methylquinolin-4-amine] showed an EC50 of 0.006 µM.
Compound Cc1ccc2nc(N3CCS(=O)(=O)c4ccccc4C3)cc(NCC3(N)CCC3)c2c1 [Example 3-54, N-[(1-Aminocyclobutyl)methyl]-2-(1,1-dioxido-2,3-dihydro-1,4-benzothiazepin-4(5H)-yl)-6-methylquinolin-4-amine] has an EC50 of 0.114 µM.
For C[S+]([O-])c1ccc2nc(N3CCS(=O)(=O)c4ccccc4C3)cc(NCCCN)c2c1 (stereo not shown) [Example 80, N-[2-(1,1-Dioxido-2,3-dihydro-1,4-benzothiazepin-4(5H)-yl)-6-(methylsulfinyl)quinolin-4-yl]propane-1,3-diamine], the EC50 was 5.48 µM.
Compound Cc1ccc2nc(N3CCS(=O)(=O)c4ccccc4C3)cc(N(CCO)CCO)c2c1 [Example 11-2, 2,2′-{[2-(1,1-Dioxido-2,3-dihydro-1,4-benzothiazepin-4(5H)-yl)-6-methylquinolin-4-yl]imino}diethanol] has an EC50 of 7.02 µM.
For Cc1ccc2nc(N3CCS(=O)(=O)c4ccccc4C3)cc(NCCCCCCCCN)c2c1 [Example 12-5, N-[2-(1,1-Dioxido-2,3-dihydro-1,4-benzothiazepin-4(5H)-yl)-6-methylquinolin-4-yl]octane-1,8-diamine], the EC50 was 0.448 µM.
Cc1ccc2nc(N3CCS(=O)(=O)c4ccccc4C3)cc(-c3cc[nH]n3)c2c1 [Example 101, 4-[6-Methyl-4-(1H-pyrazol-3-yl)quinolin-2-yl]-2,3,4,5-tetrahydro-1,4-benzothiazepine 1,1-dioxide] showed an EC50 of 8.58 µM.
Compound NCCCNc1cc(N2CCS(=O)(=O)c3ccccc3C2)nc2ccc(C(F)F)cc12 [Example 9-29, N-[6-(Difluoromethyl)-2-(1,1-dioxido-2,3-dihydro-1,4-benzothiazepin-4(5H)-yl)quinolin-4-yl]propane-1,3-diamine] has an EC50 of 0.024 µM.
Cc1ccc2nc(N3CCCc4ccc(F)cc4C3)cc(NCCN)c2c1 [Example 118-4, N-[2-(8-Fluoro-1,3,4,5-tetrahydro-2H-2-benzazepin-2-yl)-6-methylquinolin-4-yl]ethane-1,2-diamine] gave an EC50 of 0.104 µM.
Compound Cc1ccc2nc(N3CCS(=O)(=O)c4ccccc4C3)cc(NCC3(C)CN=C(N)O3)c2c1 (stereo not shown) [Example 38-2, N-[(2-Amino-5-methyl-4,5-dihydro-1,3-oxazol-5-yl)methyl]-2-(1,1-dioxido-2,3-dihydro-1,4-benzothiazepin-4(5H)-yl)-6-methylquinolin-4-amine] has an EC50 of 0.302 µM.
Compound Cc1ccc2nc(N3CCS(=O)(=O)c4ccccc4C3)cc(NCC3(N)CC3)c2c1 [Example 21-5, (1-Amino-cyclopropylmethyl)-[2-(5,5-dioxo-5,6,7,9-tetrahydro-5λ^6-thia-8-aza-benzocyclohepten-8-yl)-6-methyl-quinolin-4-yl]-amine] has an EC50 of 0.007 µM.
Compound NCCNc1cc(N2CCCc3ccc(F)cc3C2)nc2ccccc12 [Example 118-7, N-[2-(8-Fluoro-1,3,4,5-tetrahydro-2H-2-benzazepin-2-yl)quinolin-4-yl]ethane-1,2-diamine] has an EC50 of 0.166 µM.
In the case of Cc1ccc2nc(N3CCS(=O)(=O)c4ccccc4C3)cc(NC[C@@H]3COC(N)=N3)c2c1 [Example 38-3, N-{[(4R)-2-Amino-4,5-dihydro-1,3-oxazol-4-yl]methyl}-2-(1,1-dioxido-2,3-dihydro-1,4-benzothiazepin-4(5H)-yl)-6-methylquinolin-4-amine], the EC50 is reported as 0.074 µM.
Cc1ccc2nc(N3CCS(=O)(=O)c4ccccc4C3)cc(NCC(C)(O)CN)c2c1 (stereo not shown) [Example 11-4, 1-Amino-3-{[2-(1,1-dioxido-2,3-dihydro-1,4-benzothiazepin-4(5H)-yl)-6-methylquinolin-4-yl]amino}-2-methylpropan-2-ol] gave an EC50 of 0.004 µM.
Cc1ccc2nc(N3CCS(=O)(=O)c4ccccc4C3)cc(NC3CNCC34COC4)c2c1 (stereo not shown) [Example 2-6, 2-(1,1-Dioxido-2,3-dihydro-1,4-benzothiazepin-4(5H)-yl)-6-methyl-N-(2-oxa-6-azaspiro[3.4]oct-8-yl)quinolin-4-amine] showed an EC50 of 0.021 µM.
Cc1ccc2nc(N3CCS(=O)(=O)c4ccc(N5CCOCC5)cc4C3)cc(NCC3(N)COC3)c2c1 [Example 33-1, N-[(3-Aminooxetan-3-yl)methyl]-2-(7-morpholin-4-yl-1,1-dioxido-2,3-dihydro-1,4-benzothiazepin-4(5H)-yl)-6-methylquinolin-4-amine] showed an EC50 of 0.044 µM.
With NCC1(CNc2cc(N3CCS(=O)(=O)c4ccccc4C3)nc3ccc(C(=O)O)cc23)COC1 [Example 105, 4-({[3-(Aminomethyl)oxetan-3-yl]methyl}amino)-2-(1,1-dioxido-2,3-dihydro-1,4-benzothiazepin-4(5H)-yl)quinoline-6-carboxylic acid] the EC50 was 1.08 µM.
NCCNc1cc(N2CCCc3cc(F)ccc3C2)nc2ccccc12 [Example 118-16, N-[2-(7-Fluoro-1,3,4,5-tetrahydro-2H-2-benzazepin-2-yl)quinolin-4-yl]ethane-1,2-diamine] was tested, and the EC50 was 0.695 µM.
COc1cccc2c1S(=O)(=O)CCN(c1cc(NCC3(N)COC3)c3cc(C)ccc3n1)C2 [Example 65, N-[(3-Aminooxetan-3-yl)methyl]-2-(9-methoxy-1,1-dioxido-2,3-dihydro-1,4-benzothiazepin-4(5H)-yl)-6-methylquinolin-4-amine] gave an EC50 of 0.322 µM.
Work on CC(O)c1ccc2nc(N3CCS(=O)(=O)c4ccccc4C3)cc(NCCCN)c2c1 (stereo not shown) [Example 82, 1-{4-[(3-Aminopropyl)amino]-2-(1,1-dioxido-2,3-dihydro-1,4-benzothiazepin-4(5H)-yl)quinolin-6-yl}ethanol] yielded an EC50 of 0.014 µM.
Work on Cc1ccc2nc(N3CCS(=O)(=O)c4ccccc4C3)cc(NC3=NCCN3)c2c1 [Example 7, N-(4,5-Dihydro-1H-imidazol-2-yl)-2-(1,1-dioxido-2,3-dihydro-1,4-benzothiazepin-4(5H)-yl)-6-methylquinolin-4-amine] yielded an EC50 of 1.42 µM.
Clc1cc(N2CCCc3ccccc3C2)nc2ccccc12 [Example 118-26, 2-(4-Chloroquinolin-2-yl)-2,3,4,5-tetrahydro-1H-2-benzazepine] was tested, and the EC50 was 7.75 µM.
COc1ccc2c(c1)CN(c1cc(NCC3(CNC(C)=O)COC3)c3cc(C)ccc3n1)CCS2(=O)=O [Example 3-6, N-{[3-({[2-(7-Methoxy-1,1-dioxido-2,3-dihydro-1,4-benzothiazepin-4(5H)-yl)-6-methylquinolin-4-yl]amino}methyl)oxetan-3-yl]methyl}acetamide] showed an EC50 of 0.058 µM.
